Experimental findings from patent US20230248717A1, “N-(3-HYDROXYPYRIDINE-2-CARBONYL)GLYCINE-BASED ANTITUMOR DRUG SENSITIZER AND APPLICATION THEREOF” (ZHEJIANG UNIVERSITY, priority 2019, published 2023) are described below.

Test [1] concerns CT26 mouse colon cancer cells.
Method: (§1) CT26 cells (MC38 cells, 4T1 cells, B16FIO cells, HePa1-6 cells, H22 cells, LLC cells, MB49 cells, P388 cells, C6 cells, BXPC-3 cells, Hela cells, MDA-MB-231 cells, A2780 cells. PC3 cells. HepG2 cells, and HGC-27 cells) were cultured at 5,000 cells/well in a 96-well plate, 100 μL of a medium was added to each well, and the cells were incubated in a 37° C. constant-temperature incubator with 5% CO2 and 95% humidity for 24 h. 100 μL of different concentrations of drugs (DOX: 0.01 μg/mL to 10 μg/mL; PTX: 0.01 μg/mL to 50 μg/mL; Cela: 0.05 μg/mL to 1 μg/mL; sensitizer: 5 μg/mL) were added to each well, while 100 lit of a medium solution was added to the blank group. After culturing for 48 h, centrifugation was conducted at 1,100 rpm for 6 min, the medium in each well was discarded, 100 μL of an 11,11T working solution was added, and the culturing was continued for 3 h. Centrifugation was conducted at 3,300 rpm. for 5 min, the MITT medium in each well was discarded, 100 pt, of the DMSO was added, and the plate was shaken for 5 min to dissolve all crystals in each well. An absorbance of the sample at 562 nm was detected by a microplate reader. Each set of data was an average of three independent experimental results on the same sample.
For test [2], the system named is CT26 mouse colon cancer cells. Nature of the test: Cytotoxicity (MTT) in combination with chemotherapeutic drugs.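 Further: MTT read-out taken as absorbance at 562 nm after a 3 h dye incubation, medium-only wells as blank, values averaged over three independent experiments.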
Method: as §1
Test [3] concerns PD-L1 expression in CT26 cells. Nature of the test: PD-L1 expression in tumor cells by Western blot. Format: cell-based, mouse. To be noted: 5 μM, 48 h. The method, then: CT26 cells were inoculated in a 6-well plate at 2×10^4 cells per well and placed in a 37° C. incubator. After the cells adhered, DMSO solutions (5 μM) of compounds 1 to 8 were added separately, and the incubation was continued for 48 h. The medium was discarded, the cells were rinsed three times with pre-cooled PBS, and the washing solution was discarded. 0.2 nrii, of a cell lysis solution containing a protease inhibitor was added to each well and placed on ice to conduct lysis for 30 min.
After the lysis was completed, a lysate and cell debris were scraped to one side of the Petri dish with a cell scraper, the lysate was transferred to a 1.5 mL Ep tube with a pipette, centrifuged at 4° C. (12,000 rpm/5 min), and a supernatant was collected to determine its protein concentration.
The protein sample was diluted with a 1UPAlysis buffer to a certain concentration, 5×SDS loading buffer was added in a protein amount of 1 μg/μL, incubated on a metal bath at 95° C. for 5 min, cooled to room temperature, and the sample was loaded to an SDS-PAGE electrophoresis gel (5% for stacking gel and 12% for resolving gel). Under a voltage of 90 V, the protein was run to the bottom of the stacking gel to form a straight line, then the voltage was adjusted to 125 V, and the electrophoresis was stopped after the bromophenol blue appeared. […]

Test [4] concerns mRNA expression of PD-L1 in CT26 cells. Nature of the test: PD-L1 mRNA expression in tumor cells by qPCR. In kind it is cell-based, mouse. To be noted: 5 μM, 48 h, GAPDH internal reference. The method, then:
CT26 cells were inoculated in a 6-well plate at 2×10^5 cells per well and placed in a 37° C. incubator. After the cells adhered, DMSO solutions (5 μM) of the compounds of the present disclosure were added separately, and the incubation was continued for 48 h. Total RNA was lysed and extracted, and reverse transcription and PCR experiments were conducted to detect an RNA level of PD-L1 in CT26 cells, using a GAPDH gene as an internal reference.

For test [5], the system named is HIF-1α expression in CT26 cells. Nature of the test: HIF-1α expression in tumor cells by flow cytometry. Format: cell-based, mouse. To be noted: 5 μM, 24 h; for expression of HIF-1α in tumor cells: vs blank control. Here is the method:
CT26 cells were evenly plated in a 6-well plate at 2×10^4 cells per well. After the cells adhered, DMSO solutions (5 μM) of the different compounds of the present disclosure were added separately, and the incubation was continued for 24 h. The medium was discarded, the cells were rinsed three times with PBS, and 0.2 mL of trypsin containing EDTA was added to each well. The digested cells were collected in a flow tube, and a supernatant was removed by centrifugation; the cells were resuspended in a PBS containing 5% goat serum, and an FITC anti-mouse HIF-1α antibody (1 μg/1×10^6 cells) was added, incubated at 4° C. for 30 min, and washed three times with PBS, and subjected to flow detection on-machine.
(In flow cytometry, cells or beads pass a laser one at a time.)

Test [6] relates to PD-L1 expression in CT26 cells. Nature of the test: PD-L1 expression in tumor cells by flow cytometry. Format: cell-based, mouse. To be noted: 24 h, blank group 32.7%. The method, then: CT26 cells were inoculated in a 6-well plate at 2×10^4 cells per well. After the cells adhered. […] The medium was discarded, the cells were rinsed three times with PBS, and 0.2 mL of trypsin containing EDTA was added to each well. The digested cells were collected in a flow tube, and a supernatant was removed by centrifugation. The cells were resuspended in a PBS containing 5% goat serum, and an anti-mouse PD-L1 primary antibody (1 μg/1×10^6 cells) was added, and the cells were incubated at 4° C. for 30 min and washed three times with PBS. An equivalent amount of APC-labeled goat anti-rabbit secondary antibody was added and incubation was continued for 30 min; the cells were washed 3 times with PBS and subjected to flow detection on-machine.

The test system of test [7] is calreticulin in CT26 tumor cells. Nature of the test: Drug-induced immunogenic death (calreticulin, confocal). Format: cell-based, mouse. Conditions: doxorubicin-induced CT26 tumor cells, combination with DOX vs DOX alone, 24 h. The method, then:
CT26 cells were plated in confocal culture dishes, and after overnight cell adherence, different drug treatment groups were added, and the incubation was continued for 24 h. The medium was discarded, the cells were rinsed 3 times with PBS, and fixated with 4% paraformaldehyde for 10 min. The cells were rinsed 3 times with PBS for 3 min each time, a 3% BSA solution was added for blocking for 30 min at 37° C., and the blocking solution was removed with absorbent paper. 200 μuL of a calreticulin antibody (FITC-anti-CRT, 1:200) was added to each well and incubated at room temperature for I h in the dark. The cells were rinsed with PBS 3 times for 3 min each time, then a DAPI staining solution was added to each dish and incubated in the dark for 5 min. After washing three times with PBS, the cells were observed under a laser con focal microscope.

In test [8] the test system is Raw264.7 M2 tumor-associated macrophages (TAM2s). Nature of the test: Polarization of macrophages from M2 to M1 (PCR). Conditions: IL-4-induced TAM2s, 5 μM, 24 h, vs untreated TAM2s. In kind it is cell-based, mouse. Here is the method: A mouse macrophage cell line Raw264.7 was inoculated in a 24-well plate. After 12 hours of cell adhesion, the cells were further cultured for one day in a medium containing IL-4 (40 ng/mL) to induce the cells to differentiate into M2 tumor-associated macrophages (TAM2s). DMSO solutions (5 μM) of different groups of the compounds of the present disclosure were added to the TAM2s to treat for 24 h, the cells were collected and lysed, and a total RNA was extracted. The total RNA was subjected to reverse transcription and PCR experiments to detect the RNA levels of an M2 macrophage-specific protein argl and an M1 macrophage-specific protein Nos2 with an hprt gene as an internal reference.

Where [9] appears, read: CT26 cell line, chemotherapeutic drug in combination with compound 7 (sensitizer 5 μg/mL), 48 h.

The structures appear in SMILES notation. ≈ marks a conversion by molar mass, not a printed value. Read-outs that look alike come from different tables or passages of the source.

Broadly, the IC50 is the point on the concentration scale where inhibition reaches its midpoint. High values mean a need for much substance, low ones inhibition by little substance. For `CCc1c2c(nc3ccc(O)cc13)-c1cc3c(c(=O)n1C2)COC(=O)[C@]3(O)CC` [7-ethyl-10-hydroxycamptothecine], the IC50 in test [1] is 0.066 ± 0.006 µg/mL (≈ 0.168 µM). Besides, the “IC50, Compound 7+” value in test [2] (setting [9]) came to 0.025 ± 0.001 µg/mL.

Regarding `N.N.O=C([O-])C1(C(=O)[O-])CCC1.[Pt+2]` [Carboplatin], the IC50 in test [1] came out at 0.761 ± 0.044 µg/mL. Besides, the “IC50, Compound 7+” value in test [2] (setting [9]) is 0.192 ± 0.052 µg/mL.

For `N.N.[Cl][Pt][Cl]` [Cis-platinum], the IC50 in test [1] stood at 1.28 ± 0.146 µg/mL. Moreover, the “IC50, Compound 7+” value in test [2] (setting [9]) was 0.571 ± 0.068 µg/mL.

As to `CC(=O)O[C@@]12CO[C@@H]1C[C@H](O)[C@@]1(C)C(=O)[C@H](O)C3=C(C)[C@@H](OC(=O)[C@H](O)[C@@H](NC(=O)OC(C)(C)C)c4ccccc4)C[C@@](O)([C@@H](OC(=O)c4ccccc4)[C@H]21)C3(C)C` [Docetaxel], the “IC50, Compound 7+” value in test [2] (setting [9]) worked out at 0.029 ± 0.005 µg/mL.

Turning to `O=C1[O][Pt]2([NH][C@@H]3CCCC[C@H]3[NH]2)[O]C1=O` [Eloxatin], in test [2] (setting [9]), the “IC50, Compound 7+” value was determined as 2.497 ± 0.185 µg/mL.

In turn, `COc1cccc2c1C(=O)c1c(O)c3c(c(O)c1C2=O)C[C@@](O)(C(=O)CO)C[C@@H]3O[C@H]1C[C@H](N)[C@@H](O)[C@H](C)O1` [Epirubicin] registered an IC50 in test [1] of 97.4 ± 3.33 µg/mL (≈ 179 µM). Moreover, in test [2] (setting [9]), the “IC50, Compound 7+” value worked out at 17.125 ± 1.338 µg/mL.

The molecule `CC(C)=CCC[C@]1(C)C=Cc2c(O)c3c(c(CC=C(C)C)c2O1)O[C@]12C(=C[C@@H]4C[C@H]1C(C)(C)O[C@@]2(C/C=C(/C)C(=O)O)C4=O)C3=O` [Gambogic acid] gave an IC50 in test [1] of 2.18 ± 0.454 µg/mL (≈ 3.47 µM). Besides, the “IC50, Compound 7+” value in test [2] (setting [9]) came out at 0.792 ± 0.181 µg/mL.

Consider `CCc1c2c(nc3ccc(OC(=O)N4CCC(N5CCCCC5)CC4)cc13)-c1cc3c(c(=O)n1C2)COC(=O)[C@]3(O)CC` [Irinotecan], for which, in test [1], the IC50 was 2.42 ± 0.197 µg/mL (≈ 4.12 µM). The “IC50, Compound 7+” value in test [2] (setting [9]) was 1.415 ± 0.022 µg/mL.

In the case of `O=C1c2c(O)ccc(O)c2C(=O)c2c(NCCNCCO)ccc(NCCNCCO)c21` [Mitoxantrone], the IC50 in test [1] is 2.12 ± 0.297 µg/mL (≈ 4.76 µM). For the same molecule, the “IC50, Compound 7+” value in test [2] (setting [9]) was determined as 0.815 ± 0.021 µg/mL.

With `O=C1[O][Pt]2([NH][C@@H]3CCCC[C@H]3[NH]2)[O]C1=O` [Oxaliplatin], in test [2], the “IC50, Compound 7+” value worked out at 0.197 ± 0.022 µg/mL and the “IC50, Compound 7−” value is 0.650 ± 0.009 µg/mL.

On to `CC1=C(O)C(=O)C=C2C1=CC=C1[C@@]2(C)CC[C@@]2(C)[C@@H]3C[C@](C)(C(=O)O)CC[C@]3(C)CC[C@]12C` [Tripterine], for which, in test [2], the “IC50, Compound 7+” value amounted to 1.592 ± 0.142 µg/mL and the “IC50, Compound 7−” value worked out at 5.219 ± 0.242 µg/mL.

`CC[C@]1(O)C[C@H]2CN(CCc3c([nH]c4ccccc34)[C@@](C(=O)OC)(c3cc4c(cc3OC)N(C=O)[C@H]3[C@@](O)(C(=O)OC)[C@H](OC(C)=O)[C@]5(CC)C=CCN6CC[C@]43[C@@H]65)C2)C1` [Vincristine] displayed an IC50 in test [1] of 68.2 ± 2.29 µg/mL (≈ 82.6 µM). In addition, the “IC50, Compound 7+” value in test [2] (setting [9]) worked out at 44.312 ± 1.851 µg/mL.

On to `O=C(O)CNC(=O)c1ncc(-c2cccc(Cl)c2)cc1O` [compound 6], for which the “expression of PD-L1 in tumor cells (Western blot)” value in test [3] is given as “best effect”. Also, in test [4], the “mRNA expression level of PD-L1” value is listed as “best effect”. Besides, the “expression of HIF-1α in tumor cells” value in test [5] is “best effect”.

For `Cc1nc(C(=O)NCC(=O)O)c(O)c2ccc(Oc3ccccc3)cc12` [compound 7, N-(4-Hydroxy-1-methyl-7-phenoxyisoquinoline-3-carbonyl)glycine], the “expression of PD-L1 in tumor cells (Western blot)” value in test [3] is given as “best effect”. Moreover, the “mRNA expression level of PD-L1” value in test [4] was “best effect”. In addition, the PD-L1 expression rate in test [6] (10 μM compound 7 group) is reported as 18.8%. Also, the PD-L1 expression rate in test [6] (2.5 compound 7 group) stood at 24%. Moreover, the PD-L1 expression rate in test [6] (5 1μM compound 7 group) turned out to be 20.8%. Further, the “calreticulin expression (immunogenic death)” value in test [7] was “express more calreticulin”. Further, in test [8], the “RNA level of M1 macrophage-specific protein Nos2” value is listed as “significantly increased” and the “RNA level of M2 macrophage-specific protein argl” value is listed as “significantly decreased”. In test [5], the “reduction of HIF-1α” value is reported as 45% and the “expression of HIF-1α in tumor cells” value is on record as “best effect”. Besides, the “cell viability, combination with chemotherapeutic drug DOX vs chemotherapeutic drug alone” value in test [2] (CT26 cells, sensitizer 5 μg/mL, 48 h) is “best effect”. Also, the “toxicity of doxorubicin (DOX), paclitaxel (PTX), oxaliplatin (OXA) or camptothecin (irinotecan, SN38) on CT26 cells” value in test [2] (combination with compound 7, 48 h) is reported as “increase the toxicity”.
